Laboratory results taken from ChEMBL document CHEMBL1130873 (Bioorg Med Chem Lett, 1998).

What was measured:
[1] = Aerobic cytotoxic activity was evaluated by the growth inhibition of UV4 aerobic cells; type: functional, cell-based; settings: Cricetulus griseus
[2] = Concentration required to 10% of controls reduce cell survival under hypoxic conditions using the UV4 aerobic cells; type: functional, Cricetulus griseus
SK-OV-3 [3] = experiment: (§1) Aerobic cytotoxic activity was evaluated by the growth inhibition of SKOV (human ovarian cancer line) aerobic cells; type: functional
[4] = Aerobic cytotoxic activity was evaluated by the growth inhibition of AA8 (chinese hamster) aerobic cells; type: functional, cell-based; settings: Cricetulus griseus, CHO-AA8
SK-OV-3 [5] = experiment: as §1; type: functional, cell-based
[6] = Concentration required to reduce cell survival tunder hypoxic conditions using the UV4 aerobic cells; type: functional, Cricetulus griseus

Structure (SMILES): CN(C)CCNC(=O)c1cc(N(CCCl)CCCl)c([N+](=O)[O-])cc1[N+](=O)[O-]
- IC50 [1]: 3.1 µM
- CT10 [2]: 400 µM
- CT10 (SK-OV-3 [3]): 1300 µM
- IC50 [4]: 220 µM

Structure (SMILES): NC(=O)c1cc(N(CCCl)CCCl)c([N+](=O)[O-])cc1[N+](=O)[O-]
- IC50 [1]: 870 µM
- IC50 (SK-OV-3 [5]): > 1000 µM
- CT10 [6]: 95 µM
- IC50 [4]: 1450 µM
